According to PubChem BioAssay (NCI):
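These data come from cells grown in 96-well plates and exposed to compound for 48 hours at five concentrations. GI50 marks 50% less growth. The concentration for full growth arrest is given as TGI.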

Tests used:
Experiment in all cases: growth of human tumour cells (NCI), 48 h
[1] = system: BT-549 breast
[2] = system: DU-145 prostate
[3] = system: MCF7 breast
[4] = system: NCI/ADR-RES ovarian

Structure (SMILES)	TGI [1]	TGI [2]	TGI [3]	TGI [4]	GI50 [1]	GI50 [2]	GI50 [3]	GI50 [4]
Nc1nc2nc3c(nc2c(=O)[nH]1)CN(c1ccc(C(=O)O)cc1)C3=O	> 100 µM	> 100 µM	> 100 µM	> 100 µM				
CC1CN(CCO)CC(C)O1 (configuration not stated)	> 100 µM	> 100 µM	> 100 µM	> 100 µM				
CCCCC1(N=[N+]=[N-])C(=O)c2cccc3c2N(CCC3)C1=O (configuration not stated)	> 100 µM	> 100 µM	> 100 µM	> 100 µM				
COc1ccc(C(=O)/C=C/c2ccc(Cl)cc2)cc1S(N)(=O)=O	7.33 µM	13.2 µM	6.77 µM	24 µM	2.29 µM	3.43 µM	1.3 µM	3.64 µM
COc1ccc([C@H]2c3cc(OC)c(OC)cc3C=C(C=O)C2CO)cc1OC (some centres not stated)	> 100 µM	21.8 µM	> 100 µM	> 100 µM	> 100 µM	3.51 µM	3.73 µM	23.1 µM
CC(C)(O)Cn1c(=O)c(Oc2ccc(F)cc2F)cc2cnc(NC3CCOCC3)nc21	> 25 µM	> 25 µM	> 25 µM	> 25 µM	> 25 µM	> 25 µM	> 25 µM	> 25 µM
O=C1CCC/C=C\C[C@H]2C=C(Cl)C(=O)/C2=C/C[C@H](CCCCC(F)(F)F)OC(=O)CCC/C=C\C[C@H]2C=C(Cl)C(=O)/C2=C/C[C@H](CCCCC(F)(F)F)O1	0.502 µM	1.42 µM	0.973 µM	7.14 µM	0.183 µM	0.264 µM	0.176 µM	1.57 µM
CCOP1(=O)OCC2OC(n3cnc4c(N)ncnc43)C(O)C2O1 (configuration not stated)	> 100 µM	> 100 µM	> 100 µM	> 100 µM				
Cc1cc(Cl)n2c(nc3ccccc32)c1C#N	2.28 µM	1.2 µM	2.3 µM	8.74 µM	0.473 µM	0.339 µM	0.158 µM	0.847 µM
Cc1ncc(C(=O)Nc2ccc(CN3CCN(C)CC3)c(C(F)(F)F)c2)cc1C#Cc1c(N)ncc2ccc(C#N)cc12	11.2 µM	7.43 µM	11.4 µM	16.8 µM	2.71 µM	0.976 µM	0.693 µM	5.06 µM
CCCCc1ccc2nc(NC(=O)OC)[nH]c2c1	12.4 µM	0.278 µM	> 52.1 µM	0.121 µM	0.0707 µM	0.0406 µM	0.0343 µM	0.0311 µM
Cc1c2c(n3c(nc4ccccc43)c1C#N)SCC2	> 10 µM	> 10 µM	> 10 µM	> 10 µM				
COc1ccc(CCNc2nc3ccccc3c3[nH]c4ccccc4c23)cc1OC	26.3 µM	15.8 µM	5.32 µM	26 µM	12.1 µM	3.85 µM	2.2 µM	4.73 µM
COC1CC(OC2OC(CO)C(O)C(O)C2O)/C(=C\C#N)C(O)C1OC (configuration not stated)	> 100 µM	> 100 µM	> 100 µM	> 100 µM				
O=c1c(Cl)nsnc1Cl		31.5 µM	31.5 µM	> 100 µM				
Clc1ccc(Cl)c(N/N=C\c2c[nH]c3ccccc23)c1	16.9 µM	22.6 µM	> 100 µM	34.8 µM	0.196 µM	10.7 µM	> 100 µM	15.6 µM
CC/C(=C(\c1ccccc1)c1ccc(OCCN(C)C)cc1)c1ccccc1					6.8 µM		1.12 µM	2.86 µM
CC(=O)O[C@@H]1C=CC(=O)C2(CC(=O)O[C@@H]2/C=C(\C)CCC=C(C)C)C1 (some centres not stated)	3.54 µM	2.38 µM	0.599 µM	0.827 µM	1.15 µM	0.633 µM	0.0772 µM	0.223 µM
Cc1cc2c(-c3nc4ccccc4[nH]3)c(O)c(O)cc2c(O)c1-c1c(C)cc2c(-c3nc4ccccc4[nH]3)c(O)c(O)cc2c1O	1.13 µM	10.1 µM	6.84 µM		0.0235 µM	0.0205 µM	0.018 µM	
C#Cc1cccc(NC(=O)Nc2ccccc2NC(=O)CCl)c1	65.5 µM	> 82.5 µM	> 82.5 µM	75.5 µM	20 µM	28.9 µM	16.6 µM	23.4 µM
COc1ccc(CN2CCc3c(Cl)nc(N)nc3C2=O)c(OC)c1	42.2 µM	40.3 µM	61.3 µM	87 µM	16.8 µM	18.2 µM	15.7 µM	27.2 µM

Structure (SMILES)	TGI [1]	TGI [2]	TGI [3]	TGI [4]	GI50 [1]	GI50 [2]	GI50 [3]	GI50 [4]
CCc1cc(C(N)=O)ccc1-n1nc(C(C)C)c2c(-n3cnc(-c4cnn(C)c4)c3)ccnc21	> 100 µM	> 100 µM	> 100 µM	> 100 µM	6.81 µM	0.604 µM	0.443 µM	32.8 µM
C=C1C(=O)O[C@@H]2[C@@H]3O[C@@](C)(CC/C=C(\C)CCC[C@@H]2C)[C@H](O)C[C@@H]13	4.46 µM	19.4 µM		4.53 µM	1.84 µM			1.67 µM
CCN(CC)CCn1c(=N)n(CC(O)c2ccc(Cl)c(Cl)c2)c2ccccc21 (configuration not stated)	28 µM	26.8 µM	8.56 µM	36.8 µM	14.5 µM	13.9 µM	2.83 µM	17.7 µM
COc1ccc(C2SC(N)=Nc3c2c(C)nn3C(=O)c2ccncc2)cc1 (configuration not stated)	> 100 µM	> 100 µM	> 100 µM	> 100 µM				
Cc1ccc(CCC(=O)Nc2ncc(Cc3cc(Cl)ccc3Cl)s2)o1	2.72 µM	> 32.9 µM	> 100 µM	1.41 µM	0.29 µM	0.351 µM	0.0439 µM	0.159 µM
COc1cc[c]([Hg][Cl])cc1	9.16 µM	18.2 µM	4.53 µM	> 100 µM	2.97 µM	5.23 µM	1.01 µM	11.7 µM
CN(NC(=O)/C(=C/c1ccc(O)cc1)NC(=O)c1ccccc1)c1ccnc2cc(Cl)ccc12		56.9 µM	30.4 µM	38 µM				
COc1cc([C@@H]2c3cc4c(cc3[C@H](OC3OC5COC(c6ccccc6)OC5C(O)C3O)[C@H]3COC(=O)[C@H]23)OCO4)cc(OC)c1OC (some centres not stated)	1.99 µM	2.04 µM	4.2 µM	3 µM	0.333 µM	0.324 µM	0.279 µM	0.4 µM
COc1ccc(C(=O)CC2(O)C(=O)Nc3c(Cl)ccc(Cl)c32)cc1 (configuration not stated)	> 70.9 µM	> 37.6 µM	> 100 µM	19.6 µM	2.43 µM	3.44 µM	0.64 µM	0.715 µM
C1=C[C@@H]2c3ccc4cnccc4c3NC[C@@H]2C1	> 100 µM	> 100 µM	> 100 µM	> 100 µM				
COc1cc(-c2cc(-c3ccc(N(C)C)cc3)nc(N3CCC(O)CC3)c2C#N)cc(OC)c1OC	6.8 µM	> 79.6 µM	3.42 µM	> 19.8 µM	0.688 µM	0.853 µM	0.626 µM	0.35 µM
O=C1CCCC1C(=O)Nc1ccc2ccccc2c1 (configuration not stated)	> 100 µM	> 100 µM	> 100 µM	> 100 µM				
CC(C)Oc1cc(OCC(=O)O)cc(C(=O)N(CCC(N)=O)C(=O)Nc2ccc(C(=O)O)cc2OC(C)C)c1	> 100 µM	> 100 µM	> 100 µM	> 100 µM	> 100 µM	> 100 µM	> 100 µM	> 100 µM
FC(F)(F)c1ccc2nc(-c3nc(-c4ccccc4)n4ccccc34)[nH]c2c1	63.4 µM	30.3 µM	21 µM	38.5 µM	4.23 µM	7.5 µM	2.4 µM	3.71 µM
COc1ccc(/C=C2/SC(=Nc3c(C)nn(-c4ccccc4)c3N)NC2=O)cc1	22.4 µM	23.1 µM	31.5 µM	39.4 µM	4.94 µM	3.73 µM	3.08 µM	4.36 µM
O=C(Nc1ccc(Cl)c(Cl)c1)Nc1ccc(Cl)c([N+](=O)[O-])c1	5.33 µM	> 25 µM	8.32 µM	6.09 µM	1.87 µM	1.2 µM	0.795 µM	1.02 µM
CCc1nc(N)nc(N)c1-c1ccc(Cl)cc1	> 100 µM	> 100 µM	> 100 µM	> 100 µM		13.2 µM	15.3 µM	5.93 µM
CCOC(=O)c1cnc2ccc(Cl)cc2c1NCCCN(C)C	> 100 µM	76.3 µM	75.6 µM	> 100 µM	27.8 µM	25.5 µM	19.4 µM	25 µM
Cn1cc(-c2ccc3cc(-c4ccc(CC(=O)Nc5cc(C(C)(C)C)nn5C)cc4)cnc3c2)cn1	2.38 µM	> 100 µM	> 100 µM	> 100 µM	0.262 µM	0.17 µM	0.496 µM	0.355 µM
NC(=O)C/C=C/CC(N)=O	> 100 µM	> 100 µM	> 100 µM	> 100 µM				
